pIC50: −log10 of the molar value.
biological target: T1, HIV-integrase (Human immunodeficiency virus type 1 group M subtype B, UniProt P12497); assay: HIV-Integrase Inhibition Activity (SPA bead strand-transfer assay); format: biochemical; conditions: Table 1; read-out: Activity (HIV-integrase inhibition, IC50 class)
T1 construct: Recombinant integrase (0.26 ng) was incubated with the beads
How it was run: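 Biotin-labelled substrate DNA (5 pmole) bound to streptavidin SPA beads, preloaded with recombinant integrase (0.26 ng) for 90 min at 37° C, then washed. Inhibitors and 0.1 fmol P33-labelled target DNA added; reaction stopped with 10 mM EDTA. Integration read as scintillation CPM.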

SMILES | pIC50
CC(=O)N(C)c1cc(F)ccc1CNC(=O)c1nc2n(c(=O)c1O)CCOC2(C)C [Example 136, Pyrimido[2,1-c][1,4]oxazine-2-carboxamide, N-[[2-(acetylmethylamino)-4-fluorophenyl]methyl]-4,6,7,9-tetrahydro-3-hydroxy-9,9-dimethyl-4-oxo-] | 7.00 to 8.70
C[S+]([O-])c1cc(F)ccc1CNC(=O)c1nc2n(c(=O)c1O)CCOC2(C)C (stereo not shown) [Example 102, Pyrimido[2,1-c][1,4]oxazine-2-carboxamide, N-[[4-fluoro-2-(methylsulfinyl)phenyl]methyl]-4,6,7,9-tetrahydro-3-hydroxy-9,9-dimethyl-4-oxo] | 7.00 to 8.70
CC1(C)OCCn2c1nc(C(=O)NCc1ccccc1-c1ccc(CN)cc1)c(O)c2=O [Example 169] | 7.00 to 8.70
Cc1ccc(CNC(=O)c2nc3n(c(=O)c2O)CCOC3(C)C)cc1F [Example 248, Pyrimido[2,1-c][1,4]oxazine-2-carboxamide, N-[(3-fluoro-4-methylphenyl)methyl]-4,6,7,9-tetrahydro-3-hydroxy-9,9-dimethyl-4-oxo-] | 7.00 to 8.70
CC1(C)OCCn2c1nc(C(=O)NCc1ccc(F)cc1-n1cnc(C(=O)NCCO)n1)c(O)c2=O [Example 72, Pyrimido[2,1-c][1,4]oxazine-2-carboxamide, N-[[4-fluoro-2-[3-[[(2-hydroxyethyl)amino]carbonyl]-1H-1,2,4-triazol-1-yl]phenyl]methyl]-4,6,7,9-tetrahydro-3-hydroxy-9,9-dimethyl-4-oxo-] | 7.00 to 8.70
COCc1ccc(-c2ccccc2CNC(=O)c2nc3n(c(=O)c2O)CCOC3(C)C)cc1 [Example 181, Pyrimido[2,1-c][1,4]oxazine-2-carboxamide, 4,6,7,9-tetrahydro-3-hydroxy-N-[[4′-(methoxymethyl)[1,1′-biphenyl]-2-yl]methyl]-9,9-dimethyl-4-oxo-] | 7.00 to 8.70
CN(C)C(=O)c1ccc(-c2ccccc2CNC(=O)c2nc3n(c(=O)c2O)CCOC3(C)C)cc1 [Example 170, Pyrimido[2,1-c][1,4]oxazine-2-carboxamide, N-[[4′-[(dimethylamino)carbonyl][1,1′-biphenyl]-2-yl]methyl]-4,6,7,9-tetrahydro-3-hydroxy-9,9-dimethyl-4-oxo-] | 7.00 to 8.70
CC1(C)OCCn2c1nc(C(=O)NCc1ccc(F)c(C(F)(F)F)c1)c(O)c2=O [Example 241, Pyrimido[2,1-c][1,4]oxazine-2-carboxamide, N-[[4-fluoro-3-(trifluoromethyl)phenyl]methyl]-4,6,7,9-tetrahydro-3-hydroxy-9,9-dimethyl-4-oxo-] | 7.00 to 8.70
CC1(C)OCCn2c1nc(C(=O)NCc1ccc(F)cc1F)c(O)c2=O [Example 35, Pyrimido[2,1-c][1,4]oxazine-2-carboxamide, N-[(2,4-difluorophenyl)methyl]-4,6,7,9-tetrahydro-3-hydroxy-9,9-dimethyl-4-oxo-] | 7.00 to 8.70
CC1(C)OCCn2c1nc(C(=O)NCc1cc(Br)c(F)cc1Br)c(O)c2=O [Example 201, Pyrimido[2,1-c][1,4]oxazine-2-carboxamide, N-[(4-fluoro-2,5-dibromophenyl)methyl]-4,6,7,9-tetrahydro-3-hydroxy-9,9-dimethyl-4-oxo] | 7.00 to 8.70
CC1(C)OCCn2c1nc(C(=O)NCc1ccc(N)cc1)c(O)c2=O [Example 256, Pyrimido[2,1-c][1,4]oxazine-2-carboxamide, N-[(4-aminophenyl)methyl]-4,6,7,9-tetrahydro-3-hydroxy-9,9-dimethyl-4-oxo-] | 6.00 to 7.00
CC1(C)OCCCn2c1nc(C(=O)NCc1ccc(F)cc1)c(O)c2=O [Example 44, 6H-Pyrimido[2,1-c][1,4]oxazepine-2-carboxamide, N-[(4-fluorophenyl)methyl]-4,7,8,10-tetrahydro-3-hydroxy-10,10-dimethyl-4-oxo-] | 7.00 to 8.70
Cn1nnnc1-c1cc(F)ccc1CNC(=O)c1nc2n(c(=O)c1O)CCOC2(C)C [Example 107, Pyrimido[2,1-c][1,4]oxazine-2-carboxamide, N-[[4-fluoro-2-(1-methyl-1H-tetrazol-5-yl)phenyl]methyl]-4,6,7,9-tetrahydro-3-hydroxy-9,9-dimethyl-4-oxo-] | 7.00 to 8.70
CN(C)CCN(C)C(=O)c1ncn(-c2cc(F)ccc2CNC(=O)c2nc3n(c(=O)c2O)CCOC3(C)C)n1 [Example 71, Pyrimido[2,1-c][1,4]oxazine-2-carboxamide, N-[[2-[3-[[[2-(dimethylamino)ethyl]methylamino]carbonyl]-1H-1,2,4-triazol-1-yl]-4-fluorophenyl]methyl]-4,6,7,9-tetrahydro-3-hydroxy-9,9-dimethyl-4-oxo-] | 7.00 to 8.70
COc1ccc(-c2ccccc2CNC(=O)c2nc3n(c(=O)c2O)CCOC3(C)C)c(OC)n1 [Example 154, Pyrimido[2,1-c][1,4]oxazine-2-carboxamide, N-[[2-(2,6-dimethoxy-3-pyridinyl)phenyl]methyl]-4,6,7,9-tetrahydro-3-hydroxy-9,9-dimethyl-4-oxo-] | 7.00 to 8.70
CC1(C)OCCn2c1nc(C(=O)NCc1ccc(F)cc1N1C(=O)CC[C@@H]1CO)c(O)c2=O [Example 128, Pyrimido[2,1-c][1,4]oxazine-2-carboxamide, N-[[4-fluoro-2-[(2R)-2-(hydroxymethyl)-5-oxo-1-pyrrolidinyl]phenyl]methyl]-4,6,7,9-tetrahydro-3-hydroxy-9,9-dimethyl-4-oxo-] | 7.00 to 8.70

SMILES | pIC50
CC1(C)OCCn2c1nc(C(=O)NCc1ccc(F)cc1C#CCO)c(O)c2=O [Example 89, Pyrimido[2,1-c][1,4]oxazine-2-carboxamide, N-[[4-fluoro-2-(3-hydroxy-1-propynyl)phenyl]methyl]-4,6,7,9-tetrahydro-3-hydroxy-9,9-dimethyl-4-oxo-] | 7.00 to 8.70
CCC1OCCn2c1nc(C(=O)NCc1ccc(F)c(C)c1)c(O)c2=O (stereo not shown) [Example 11, Pyrimido[2,1-c][1,4]oxazine-2-carboxamide, 9-ethyl-N-[(4-fluoro-3-methylphenyl)methyl]-4,6,7,9-tetrahydro-3-hydroxy-4-oxo-] | 7.00 to 8.70
COc1cc(F)ccc1CNC(=O)c1nc2n(c(=O)c1O)CCOC2(C)C [Example 41, Pyrimido[2,1-c][1,4]oxazine-2-carboxamide, N-[(4-fluoro-2-methoxyphenyl)methyl]-4,6,7,9-tetrahydro-3-hydroxy-9,9-dimethyl-4-oxo-] | 7.00 to 8.70
CC1(C)OCCn2c1nc(C(=O)NCc1ccccc1-c1cnn(Cc3ccccc3)c1)c(O)c2=O [Example 155, Pyrimido[2,1-c][1,4]oxazine-2-carboxamide, 4,6,7,9-tetrahydro-3-hydroxy-9,9-dimethyl-4-oxo-N-[[2-[1-(phenylmethyl)-1H-pyrazol-4-yl]phenyl]methyl]-] | 7.00 to 8.70
Cc1ccc(-c2ccccc2CNC(=O)c2nc3n(c(=O)c2O)CCOC3(C)C)cc1 [Example 162, Pyrimido[2,1-c][1,4]oxazine-2-carboxamide, 4,6,7,9-tetrahydro-3-hydroxy-9,9-dimethyl-N-[(4′-methyl[1,1′-biphenyl]-2-yl)methyl]-4-oxo-] | 7.00 to 8.70
C#Cc1cc(F)ccc1CNC(=O)c1nc2n(c(=O)c1O)CCOC2(C)C [Example 88, Pyrimido[2,1-c][1,4]oxazine-2-carboxamide, N-[(2-ethynyl-4-fluorophenyl)methyl]-4,6,7,9-tetrahydro-3-hydroxy-9,9-dimethyl-4-oxo-] | 7.00 to 8.70
CCC1(CC)OCCn2c1nc(C(=O)NCc1ccc(F)cc1S(C)(=O)=O)c(O)c2=O [Example 203, Pyrimido[2,1-c][1,4]oxazine-2-carboxamide, 9,9-diethyl-N-[[4-fluoro-2-(methylsulfonyl)phenyl]methyl]-4,6,7,9-tetrahydro-3-hydroxy-4-oxo-] | 7.00 to 8.70
Cc1cc(CNC(=O)c2nc3n(c(=O)c2O)CCCOC3(C)C)ccc1F [Example 45, 6H-Pyrimido[2,1-c][1,4]oxazepine-2-carboxamide, N-[(4-fluoro-3-methylphenyl)methyl]-4,7,8,10-tetrahydro-3-hydroxy-10,10-dimethyl-4-oxo-] | 7.00 to 8.70
CC1(C)OCCn2c1nc(C(=O)NCc1cccc(Cl)c1)c(O)c2=O [Example 226, Pyrimido[2,1-c][1,4]oxazine-2-carboxamide, N-[(3-chlorophenyl)methyl]-4,6,7,9-tetrahydro-3-hydroxy-9,9-dimethyl-4-oxo-] | 7.00 to 8.70
CN(C)C(=O)c1cccc(-c2ccccc2CNC(=O)c2nc3n(c(=O)c2O)CCOC3(C)C)c1 [Example 171] | 7.00 to 8.70
COc1ncc(-c2ccccc2CNC(=O)c2nc3n(c(=O)c2O)CCOC3(C)C)cc1Cl [Example 193, Pyrimido[2,1-c][1,4]oxazine-2-carboxamide, N-[[2-(5-chloro-6-methoxy-3-pyridinyl)phenyl]methyl]-4,6,7,9-tetrahydro-3-hydroxy-9,9-dimethyl-4-oxo-] | 7.00 to 8.70
CC1(C)OCCn2c1nc(C(=O)NCc1ncc(F)cc1F)c(O)c2=O [Example 28, Pyrimido[2,1-c][1,4]oxazine-2-carboxamide, N-[(3,5-difluoro-2-pyridinyl)methyl]-4,6,7,9-tetrahydro-3-hydroxy-9,9-dimethyl-4-oxo-] | 7.00 to 8.70
CC1(C)OCCn2c1nc(C(=O)NCc1ccccc1N1CCCCS1(=O)=O)c(O)c2=O [Example 215, Pyrimido[2,1-c][1,4]oxazine-2-carboxamide, 4,6,7,9-tetrahydro-3-hydroxy-9,9-dimethyl-4-oxo-N-[[2-(tetrahydro-1,1-dioxido-2H-1,2-thiazin-2-yl)phenyl]methyl]-] | 7.00 to 8.70
CC1(C)OCCn2c1nc(C(=O)NCc1ccc(Cl)c(Cl)c1)c(O)c2=O [Example 221, Pyrimido[2,1-c][1,4]oxazine-2-carboxamide, N-[(3,4-dichlorophenyl)methyl]-4,6,7,9-tetrahydro-3-hydroxy-9,9-dimethyl-4-oxo-] | 7.00 to 8.70
CC1(C)OCCn2c1nc(C(=O)NCc1ccccc1N1CCOCC1)c(O)c2=O [Example 260, Pyrimido[2,1-c][1,4]oxazine-2-carboxamide, 4,6,7,9-tetrahydro-3-hydroxy-9,9-dimethyl-N-[[2-(4-morpholinyl)phenyl]methyl]-4-oxo-] | 7.00 to 8.70
